Data on seven compounds can be found in patent US20090253589A1, “Method for Testing Active Compounds” (Nambition GmbH, priority 2006, published 2009).

Entries after “also recorded” stand apart in the source; their conditions may differ. Read-outs that look alike come from different tables or passages of the source.

Test [1] concerns the target T1, rhodopsin Cys110-Cys187 disulfide bond (Bos taurus, UniProt P02699).
T1 construct: ROS were purified from fresh bovine retinas as described [33]; from tissue; host or cells: bovine retina, rod outer segment (ROS) disc membranes
Nature of the test: SMFS of rhodopsin: ratio of 65 nm (intact Cys110-Cys187 bond) to 95 nm (absent bond) force-distance curves. Further details: species or system bovine. The note with it: for effect on ratio of intact to broken Cys110-Cys187 disulfide bonds (65 nm vs 95 nm rhodopsin): increasing Zn^2+ concentrations, FIG. 4. From the text: This is due to the fact that the loop not unraveled by SMFS in the Cys110-Cys187 form is unfolded in the 95 nm form.
These force spectra were obtained in substantial absence of zinc, since EDTA was used in the preparation of the ROS disc membranes.
The ratio of the Cys110-Cys187 rhodopsin force-distance curves and the 95 nm rhodopsin force-distance curves was changed in the presence of dithiothreitol and N-ethylmaleimide. The ratio of the 65 nm curves to the 95 nm curves was 1:2 in the presence of dithiothreitol and 7:1 in the presence of N-ethylmaleimide. Dithiothreitol likely disrupts the Cys110-Cys187 disulfide bond, and N-ethylmaleimide alkylates Cys 185. The action of these two compounds likely occurs during the unfolding of rhodopsin, since the residues modified by these reagents are not accessible in the native structure of the protein, as can be judged from the known crystal structure of rhodopsin.
AFM imaging and force spectroscopy were performed as described elsewhere. Disc membranes were adsorbed onto a freshly cleaved mica surface as described previously. For force measurements, the AFM stylus was approached to the Rh surface while applying a constant force of ˜1 nN. After a contact time of ˜0.5-1 s, the stylus was retracted from the membrane surface at a constant velocity of 300 nm/s. All experiments were performed in 150 mM KCl, 25 mM MgCl2, 20 mM Tris, pH 7.8, at room temperature. In experiments where rhodopsin was treated with 1 mM EDTA (Sigma), ZnCl2 (Fisher Scientific), CaCl2, CdCl2, CoCl2, or CuCl2, the buffer was supplemented with the specified amounts of the reagent and the pH adjusted to 7.8. When assayed with 0, 10, 25, 50, 100, 200 and 400 μM ZnCl2, rhodopsin in native ROS disc membranes was diluted in the dilution buffer with the required amount of ZnCl2 and incubated on ice for ˜40 mins—1 h in complete darkness. In the case of other metal ions the sample preparation was carried out in a similar way. In the experiment where 1 mM EDTA was used, 25 mM MgCl2 was not added to the buffer. All dilutions were carried out under dim red light and experiments performed in a completely dark room. Force curves were collected over a period of less than 1 h to prevent bleaching of rhodopsin. The red laser on the AFM promoted minimal bleaching of Rh. ROS membranes solubilized in n-dodecyl-β-D-maltoside were bleached less than 5% after incubation under the AFM laser for 1 hr.
In the first step, the force-distance curves were separated based on their lengths. […] The number of extended amino acid residues at each peak was then calculated using the contour length obtained from the WLC fits. […] To measure the unfolding force and probability of unfolding for each individual structural segment, every event of each curve was analyzed.

For test [2], the target named is T2, rhodopsin (Bos taurus, UniProt P02699). The test can be described thus: Single-molecule force spectroscopy (AFM) unfolding of rhodopsin in native ROS disc membranes: unfolding forces and pathways. Further details: ROS were purified from fresh bovine retinas as described [33]; from tissue; host or cells: bovine retina, rod outer segment (ROS) disc membranes; species or system bovine.
Target sequence in this assay (P02699 whole entry): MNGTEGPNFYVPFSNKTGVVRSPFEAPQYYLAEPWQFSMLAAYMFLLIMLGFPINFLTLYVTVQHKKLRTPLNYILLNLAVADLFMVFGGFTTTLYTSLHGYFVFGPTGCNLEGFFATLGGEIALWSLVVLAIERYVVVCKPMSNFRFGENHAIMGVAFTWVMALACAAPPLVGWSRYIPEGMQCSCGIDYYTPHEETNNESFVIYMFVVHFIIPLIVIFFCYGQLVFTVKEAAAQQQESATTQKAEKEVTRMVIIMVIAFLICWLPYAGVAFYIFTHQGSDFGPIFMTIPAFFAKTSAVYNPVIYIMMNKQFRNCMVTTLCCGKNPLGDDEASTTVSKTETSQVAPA

The target of test [3] is T2, rhodopsin. Nature of the test: SMFS cleavage experiment: ROS membranes digested with endoproteinase Glu-C, fraction of curves by length. Set-up: total number of curves obtained from the uncleaved native Rh sample; from tissue; host or cells: bovine retina ROS membranes, treated with endoproteinase Glu-C (Roche Applied Science); species or system bovine. Here is the method: For cleavage experiments, ROS membranes (2 mg/mL) resuspended in Ringer's buffer (10 mM Hepes, 130 mM NaCl, 3.6 mM KCl, 2.4 mM MgCl2, 1.2 mM CaCl2, 0.02 mM EDTA, pH 7.4) were treated with endoproteinase Glu-C (Roche Applied Science, Indianapolis, Ind., USA) at a substrate to enzyme ratio of 10:1 (w/w). Membranes were digested with the enzyme for 2 h at room temperature and 1.5 h on ice. The reaction was terminated by washing membranes three times with Ringer's buffer containing 5 mM benzamidine (1 mL) and one time with buffer A (1 mL). Membranes were resuspended in buffer A for SMFS studies. For solubilization of rhodopsin (Rh), ROS membranes were resuspended in 20 mM BTP, 150 mM NaCl, 1% n-dodecyl-β-D-maltoside, pH 7.4. The membrane suspension was shaken at room temperature for 10 min and then centrifuged to remove insoluble material at 164,000×g for 30 min. Protein concentration was determined using the Bradford Protein Assay Kit from Bio-Rad Laboratories (Hercules, Calif., USA).
As mentioned above the molecule could detach from the AFM stylus during unfolding. Therefore, for the cleavage experiments with endoproteinase Glu-C it is important to be certain that the <40 nm length force-distance curves are mainly from the N-terminal fragment of the molecule and not from the detached molecule. […]
Target sequence in this assay (P02699 whole entry): as above
Target sequence in this assay (P02699 240-341 limits assumed): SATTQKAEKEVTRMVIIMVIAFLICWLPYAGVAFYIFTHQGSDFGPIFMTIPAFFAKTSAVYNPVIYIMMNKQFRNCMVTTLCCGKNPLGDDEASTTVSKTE

The mark [4] stands for this setting: in the presence of N-ethylmaleimide.
The mark [5] stands for this setting: 200 μM metal ion in buffer, FIG. 3A.
The mark [6] stands for this setting: dark state rhodopsin, native ROS disc membranes.

T1 sequence (P02699 whole entry): as the sequence (P02699 whole entry) above

In the case of `CCN1C(=O)C=CC1=O` [N-ethylmaleimide], in test [1] (setting [4]), the “fold increase in the proportion of the 65 nm curves” value worked out at 3.5 fold and the “fraction of total rhodopsin molecules that lack the Cys110-Cys187 bond” value is recorded as “⅛”.
Take `[Cl][Cd][Cl]` [cadmium, CdCl2]: the “effect on stability of rhodopsin segments (difference in unfolding force relative to 0 μM Zn^2+)” value is given as “destabilize the majority of the segments” on rhodopsin [2] (setting [5]) and “destabilize or have no effect on the majority of the segments” on rhodopsin [2] (200 μM metal ion in buffer, FIG. 3A, listed as Cd^2+).
With “endoproteinase Glu-C: protease (Roche Applied Science) used to digest ROS membranes in cleavage experiments”, the “fraction of short curves (<40 nm) of the total curves” value with rhodopsin [3] (digested sample (untreated sample 23%)) was determined as 55%. The “fraction of ≈65 nm and ≈95 nm long curves” value in the test with rhodopsin [3] (enzymatically treated sample) is 2%.
Consider `[Cl-].[Cl-].[Mg+2]` [magnesium, MgCl2], for which the “effect on the stability of rhodopsin” value on rhodopsin [2] (25 mM Mg^2+, FIG. 3B) was “almost no effect”.
With `[Cl-].[Cl-].[Co+2]` [cobalt, CoCl2], the “effect on stability of rhodopsin segments (difference in unfolding force relative to 0 μM Zn^2+)” value at rhodopsin [2] is listed as “destabilize the majority of the segments; also recorded: destabilize or have no effect on the majority of the segments”.
With `[Cl-].[Cl-].[Zn+2]` [zinc, ZnCl2], the “effect on stability of rhodopsin segments (difference in unfolding force relative to 0 μM Zn^2+)” value on rhodopsin [2] (setting [5]) was “stabilizes most segments of the receptor”. Also, the “zinc concentration above which the stability of rhodopsin increased” value on rhodopsin [2] (setting [6]) is given as “above 50 μM”. Besides, the “zinc concentration giving the highest stability of dark state rhodopsin” value on rhodopsin [2] (setting [6]) is 200 µM. Moreover, the “effect on occurrence probabilities of the unfolding pathways” value at rhodopsin [2] (zinc 10, 25, 50, 100, 200 and 400 μM, other metal ions 200 μM) is “leads to a change in the occurrence probabilities of the unfolding pathways”. Besides, the entries for the “effect on ratio of intact to broken Cys110-Cys187 disulfide bonds (65 nm vs 95 nm rhodopsin)” value in test [1] and in test [1] (listed as Zn^2+) were “favour the level of 65 nm rhodopsin” and “clearly stabilizes the disulfide bond in a concentration dependent manner”, respectively.
As to `[Ca+2].[Cl-].[Cl-]` [calcium, CaCl2], the “effect on stability of rhodopsin segments (difference in unfolding force relative to 0 μM Zn^2+)” value on rhodopsin [2] (setting [5]) is on record as “destabilize the majority of the segments”; on rhodopsin [2] (200 μM metal ion in buffer, FIG. 3A, listed as Ca^2+), “destabilize or have no effect on the majority of the segments”.
